Values of other authors, collected in patent US20160317442A1, “Nanosomal preparation of the complex formed by quercetin (or another flavonol, flavone or a derivative thereof) and 2-hydroxypropyl-beta-cyclodextrin for intravenous use in cerebral pathological conditions” (priority 2013, published 2016).

Conditions: aqueous preparations

- detection of quercetin in the brain: not detected
Structure (SMILES): O=c1c(O)c(-c2ccc(O)c(O)c2)oc2cc(O)cc(O)c12 [quercetin]
